# Experimental data published in patent US12377052B2, “Dual-responsive nanoparticles for enhanced antibacterial efficacy” (priority 2020, dated 2025).
# Like-named read-outs stand apart in the source and are kept apart here.
# Experiments:
# MRSA (ATCC 33591) = assay: MIC, broth microdilution; format: cell-based, S. aureus
# Experimental: (§1) Bacterial strains. S. aureus Newman was kindly provided by Prof. Douglas Weibel; E. coli ATCC25922, S. aureus ATCC 33591 and P. aeruginosa ATCC 27853 were purchased from ATCC. E. coli DH5a was purchased from Thermo Fisher. These bacteria were grown in Mueller Hinton Broth (MHB) media (Criterion, Santa Maria, CA, USA). M. smegmatis mc^2155 strain was kindly provided by Prof. Adel M. Talaat's laboratory, and it was grown in Middlebrook 7H9 broth (HiMedia, West Chester, PA, USA).
# (§2) Minimal inhibitory concentration (MIC) measurements. The MIC of the different treatments on various bacteria strains was determined using the Clinical Laboratory Standards Institute broth microdilution method^8. Briefly, broth media (100 μL) containing two-fold serial dilutions of each compound were placed into a 96-well tissue culture plate. Each bacterial strain was taken from an exponentially growing culture and diluted to 5×10^6 CFU/mL. Ten microliters of such microbial suspension was inoculated in each well of the plate, resulting in a final bacteria concentration of approximately 5×10^5 CFU/mL. The bacteria were cultured at 37° C. for one day and their growth was observed by reading the optical density (OD) at 600 nm. The MIC was determined as the treatment concentration at which no microbial growth was observed. Broth containing microbial cells alone was used as a positive control and broth without bacteria inoculation was used as a negative control. Each test was carried out in 3 replicates.
# [1] = system: P. aeruginosa (ATCC 27853); assay: MIC, broth microdilution; format: cell-based
# Experimental: as §1, §2
# MRSA = assay: Checkerboard assay, FIC index; format: cell-based, S. aureus; settings: antibiotic with the PBAE-G polymer
# Experimental: (§3) Fractional inhibitory concentration (FIC) measurement. The synergy between the cationic polymer and antibiotic was assessed by checkerboard assays. The two antibacterial components were mixed in a 96-well plate with serial two-dimensional dilutions. Bacteria were inoculated in each well of the plate and their growth, reflected by the OD600 value, was monitored. The synergy effect was evaluated by calculating the FIC index according to the formula below:
# (§4) [formula] MICA^Comb and MICB^Comb indicate the MICS of the two components in combination. The interactions between the two components are defined according to standard criteria of considering FIC≤0.5 as synergistic; 0.5<FIC≤1 as additive; 1<FIC≤4 as indifference; and FIC>4 as antagonism.
# [2] = system: P. aeruginosa (ATCC 27853); assay: Checkerboard assay, FIC index; format: cell-based; settings: for FIC index: antibiotic with the PBAE-G polymer
# Experimental: as §3, §4
# E. coli (ATCC 25922) = assay: MIC, broth microdilution; format: cell-based; settings: Escherichia coli, ATCC25922; no pH/H2O2 stimulus stated
# Experimental: as §1, §2
# E. coli (DH5 alpha) = assay: MIC, broth microdilution; format: cell-based; settings: Escherichia coli; no pH/H2O2 stimulus stated
# Experimental: as §1, §2
# M. smegmatis (MC^2 155) [3] = assay: MIC, broth microdilution; format: cell-based; settings: Mycolicibacterium smegmatis, MC^2155; no pH/H2O2 stimulus stated
# Experimental: as §1, §2
# S. aureus (Newman) = assay: MIC, broth microdilution; format: cell-based; settings: Staphylococcus aureus, no pH/H2O2 stimulus stated
# Experimental: as §1, §2
# M. smegmatis (MC^2 155) [4] = assay: Checkerboard assay, FIC index; format: cell-based; settings: low pH and high ROS condition
# Experimental: as §3, §4
# [5] = system: Raw 264.7 murine macrophage cells; assay: Cell viability test (MTT assay); format: cell-based; settings: Mus musculus, RAW264.7, 24 h, one day treatment
# Experimental: Cell viability test. Cytotoxicity of different NP components was tested using MTT assays. Raw 264.7 murine macrophage cells were seeded onto a 96-well plate (1×10^4 cells/well) and cultured overnight. The cells were then treated with free antibiotic, PBAE-G polymer or NP with serial dilutions for one day and their viability was measured by a standard MTT assay. Data were collected by monitoring the difference between the absorbance at 560 nm and 650 nm using a GloMax-Multi Microplate Multimode Reader (Promega, WI, USA).
# MRSA biofilm = assay: Biofilm inhibition assay (crystal violet); format: cell-based, S. aureus; settings: 32 μg/mL
# Experimental: Biofilm inhibition assays. Exponentially growing bacteria were inoculated into 96 well plates (1×10^4 cell/well) containing MHB broth with 2% (w/v) glucose, and incubated under stationary conditions at 37° C. for one day. After biofilm formation, the medium was discarded, and the plates were washed with PBS to remove the planktonic bacteria. Fresh MHB broth containing serially diluted free rifampicin or NP was added to the plates and incubated at 37° C. for another 24 h. The media in each well was then removed, and the plates were washed carefully with PBS one time. The biofilm in each well was fixed with 95% ethanol for 15 min and stained with 0.1% crystal violet for 15 min. After the biofilm was washed with Milli-Q water for three times, 33% v/v acetic acid (100 μL/well) was added to the plate to solubilize the crystal violet staining. OD 560 in each well was read to assess the biofilm formation.
# E. coli ATCC 25922 = assay: Evaluation of antibiotic resistance development (serial passaging); format: cell-based; settings: sub-lethal dose (0.5 MIC), after 20 passages
# Experimental: Evaluation of antibiotic resistance development. […] The OD 600 value in each tube was examined to determine the MIC, and the bacteria cultured in the tube containing rifampicin at a ½ MIC was used for passage. The MIC for each passage was recorded and compared to that of the first passage to determine the drug resistance enhancement.
# [6] = Table 1, antibiotic alone, in µg/mL (unit assumed)
Molecule,"MIC (MRSA (ATCC 33591); Table 1, antibiotic alone) [µg/mL]","MIC [1, 6]",FIC index (MRSA),FIC index [2],"MIC (MRSA (ATCC 33591); Staphylococcus aureus, no pH/H2O2 stimulus stated, read-out: MIC MRSA (ATCC 33591)) [µg/mL]",MIC (E. coli (ATCC 25922)) [µg/mL],MIC (E. coli (DH5 alpha)) [µg/mL],MIC (M. smegmatis (MC^2 155) [3]) [µg/mL],"MIC ([1]; Pseudomonas aeruginosa, ATCC27853, no pH/H2O2 stimulus stated, read-out: MIC P. aeruginosa (ATCC 27853)) [µg/mL]",MIC (S. aureus (Newman)) [µg/mL],FIC index between rifampicin and the PBAE-G-B polymer (M. smegmatis (MC^2 155) [4]),FIC index between rifampicin and the PBAE-G-B polymer ([2]; low pH and high ROS condition),IC50 [5] [µg/mL],biofilm remained (MRSA biofilm),MIC increase compared to initial (E. coli ATCC 25922) [fold]
CC1(C)S[C@@H]2[C@H](NC(=O)[C@H](N)c3ccc(O)cc3)C(=O)N2[C@H]1C(=O)O [Amoxicillin],128,1024,0.75,2,,,,,,,,,,,
O=C(O)c1cn(C2CC2)c2cc(N3CCNCC3)c(F)cc2c1=O [Ciprofloxacin],0.5,0.25,2,1,,,,,,,,,,,
CCC[C@@H]1C[C@@H](C(=O)N[C@@H]([C@H]2O[C@H](SC)[C@H](O)[C@@H](O)[C@H]2O)[C@H](C)Cl)N(C)C1 [Clindamycin],32,>1024,0.562,<0.25,,,,,,,,,,,
CO[C@H]1/C=C/O[C@@]2(C)Oc3c(C)c(O)c4c(O)c(c(/C=N/N5CCN(C)CC5)c(O)c4c3C2=O)NC(=O)/C(C)=C\C=C\[C@H](C)[C@H](O)[C@@H](C)[C@@H](O)[C@@H](C)[C@H](OC(C)=O)[C@@H]1C [Rifampicin],0.016,32,1,0.25,0.016,16,16,128,32,0.016,0.25,0.188,210,More than 80%,40
[H]/N=C(/N)N[C@H]1[C@H](O)[C@@H](O)[C@H](O[C@@H]2O[C@@H](C)[C@](O)(C=O)[C@H]2O[C@@H]2O[C@@H](CO)[C@H](O)[C@@H](O)[C@@H]2NC)[C@@H](N/C(N)=N\[H])[C@@H]1O [Streptomycin],16,16,0.266,0.25,,,,,,,,,,,
CN[C@H](CC(C)C)C(=O)N[C@H]1C(=O)N[C@@H](CC(N)=O)C(=O)N[C@H]2C(=O)N[C@H]3C(=O)N[C@H](C(=O)N[C@H](C(=O)O)c4cc(O)cc(O)c4-c4cc3ccc4O)[C@H](O)c3ccc(c(Cl)c3)Oc3cc2cc(c3O[C@@H]2O[C@H](CO)[C@@H](O)[C@H](O)[C@H]2O[C@H]2C[C@](C)(N)[C@H](O)[C@H](C)O2)Oc2ccc(cc2Cl)[C@H]1O [Vancomycin],1,1024,1,2,,,,,,,,,,,
Gentamicin,1,1,0.5,0.375,,,,,,,,,,,
